Results from patent US20250263405A1, “HISTONE DEACETYLASE 6 INHIBITOR COMPOUNDS AND USES THEREOF” (VALO HEALTH, INC., priority 2021, published 2025).

Biological target: HDAC6 (Homo sapiens (Human), UniProt Q9UBN7)
Assay: HDAC6 TR-FRET displacement assay
Format: binding
Conditions: displacement of fluorescein labeled tracer from HDAC6; 2 nM HDAC6, 1 nM tracer, 0.5 nM Tb-anti-GST antibody; 30 min pre-incubation, 6 hours at 25° C.
Source text: HDAC6 and Tb-anti-GST antibody were purchased from Signal Chem (cat #PC124) and Cisbio (cat #61GSTTAH), respectively. HEPES, pH 7.5 was purchased from Teknova (Cat #H1575). All other buffer components, NaCl (cat #S5150), KCl (cat #60121), Triton X-100 (cat #T9284), GSH (cat #G4251), BGG (cat #G5009), and BSA (cat #A2153) were purchased from SIGMA.
Displacement of fluorescein labeled tracer 2-(6-hydroxy-3-oxo-3H-xanthen-9-yl)-5-({[5-(4-{[7-(hydroxycarbamoyl)-2H,3H,4H,5H-thieno[2,3-f][1,4]oxazepine-4-carbonyl]amino}phenoxy)pentyl]carbamothioyl}amino)benzoic acid from HDAC6 was measured in vitro using a TR-FRET assay. The assays were performed in 1536-well plates in a total volume of 6 μL in assay buffer consisting of 50 mM HEPES pH 7.5, 50 mM NaCl, 50 mM KCl, 0.01% Triton X-100, 0.5 mM GSH, 0.03% BGG, 0.01% BSA.
For concentration response curves (IC50 determination), Compounds were serially diluted 3-fold from 2 mM highest concentration to generate a 10-point concentration gradient. To perform the assay, 30 nL of compound gradient solutions were transferred to the assay plate using the ECHO acoustic dispenser to achieve a final concentration range of 10 μM to 0.000508 uM in 6 μL reaction. 3 μL of HDAC6 in assay buffer were added to the assay plates and pre-incubate at room temp. for 30 mins. After pre-incubation, 3 μL of the tracer and TB-anti-GST antibody mix were added to the assay plates. The final concentrations of HDAC6, tracer, and TB-anti-GST antibody for each assay are 2 nM, 1 nM, and 0.5 nM, respectively. Binding reactions were equilibrated at 25° C. for an additional 6 hours, then read in endpoint mode on the BMG PheraStar (BMG labtech) equipped with a 337-520-490 optical module. The ratio of the 520/490 nm emission was calculated to determine the relative amounts of HDAC6 and tracer complex residue in each well.
The percent inhibition of HDAC6 (IC50) was calculated according to the following equation.
As set forth in Table 1, “A” indicates an HDAC6 IC50 value of less than 200 nM; “B” indicates an HDAC6 IC50 value of greater than or equal to 200 nM and less than 500 nM; and “C” indicates an HDAC6 IC50 value of greater than or equal to 500 nM and less than 5 μM.

Sequence of HDAC6 (Q9UBN7 whole entry): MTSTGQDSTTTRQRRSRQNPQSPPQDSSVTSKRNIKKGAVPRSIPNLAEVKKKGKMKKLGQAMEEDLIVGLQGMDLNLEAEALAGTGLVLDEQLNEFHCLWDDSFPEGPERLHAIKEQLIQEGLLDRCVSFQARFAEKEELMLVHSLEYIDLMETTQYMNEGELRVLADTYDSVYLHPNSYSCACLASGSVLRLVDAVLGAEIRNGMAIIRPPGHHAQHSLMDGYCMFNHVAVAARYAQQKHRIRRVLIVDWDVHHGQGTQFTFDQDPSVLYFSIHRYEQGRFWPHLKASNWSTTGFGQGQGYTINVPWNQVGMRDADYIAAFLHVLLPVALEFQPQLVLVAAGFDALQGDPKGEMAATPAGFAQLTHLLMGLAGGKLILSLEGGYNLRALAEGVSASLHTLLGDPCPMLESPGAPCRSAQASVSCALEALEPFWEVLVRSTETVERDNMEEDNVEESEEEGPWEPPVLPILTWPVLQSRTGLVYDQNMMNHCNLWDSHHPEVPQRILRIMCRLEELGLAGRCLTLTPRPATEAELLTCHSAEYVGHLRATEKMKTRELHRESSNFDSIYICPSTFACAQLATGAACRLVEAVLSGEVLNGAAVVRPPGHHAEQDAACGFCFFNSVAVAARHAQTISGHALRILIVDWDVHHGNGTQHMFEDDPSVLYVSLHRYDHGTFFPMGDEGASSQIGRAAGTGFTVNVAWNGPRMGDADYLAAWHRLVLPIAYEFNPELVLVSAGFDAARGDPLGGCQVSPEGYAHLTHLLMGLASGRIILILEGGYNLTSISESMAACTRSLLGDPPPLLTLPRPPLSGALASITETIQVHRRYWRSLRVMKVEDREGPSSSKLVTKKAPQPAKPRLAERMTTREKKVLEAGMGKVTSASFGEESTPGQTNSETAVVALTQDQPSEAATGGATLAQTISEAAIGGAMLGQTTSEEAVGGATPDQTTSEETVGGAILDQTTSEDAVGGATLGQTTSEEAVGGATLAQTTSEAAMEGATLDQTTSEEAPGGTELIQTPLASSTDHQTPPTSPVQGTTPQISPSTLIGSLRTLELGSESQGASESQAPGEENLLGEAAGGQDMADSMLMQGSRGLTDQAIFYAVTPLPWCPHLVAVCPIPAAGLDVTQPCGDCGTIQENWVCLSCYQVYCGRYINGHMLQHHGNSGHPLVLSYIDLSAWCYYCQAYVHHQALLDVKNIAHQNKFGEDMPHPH

| Compound | IC50 |
| --- | --- |
| C[C@H]1COc2cc(-c3noc(C(F)(F)F)n3)cc(F)c2CN1C(=O)C(C)(C)C [Compound 19, 1-[(3S)-6-fluoro-3-methyl-8-[5-(trifluoromethyl)-1,2,4-oxadiazol-3-yl]-3,5-dihydro-2H-1,4-benzoxazepin-4-yl]-2,2-dimethylpropan-1-one] | < 0.2 µM |
| C[C@H]1COc2cc(-c3nnc(C(F)F)o3)ccc2CN1C(=O)C(C)(C)C [Compound 20, (S)-1-(8-(5-(difluoromethyl)-1,3,4-oxadiazol-2-yl)-3-methyl-2,3-dihydrobenzo[f][1,4]oxazepin-4(5H)-yl)-2,2-dimethylpropan-1-one] | < 0.2 µM |
| CC(C)(C)C(=O)N1Cc2ccc(-c3nnc(C(F)F)o3)cc2OC[C@@H]1c1ccccc1 [Compound 22, (S)-1-(8-(5-(difluoromethyl)-1,3,4-oxadiazol-2-yl)-3-phenyl-2,3-dihydrobenzo[f][1,4]oxazepin-4(5H)-yl)-2,2-dimethylpropan-1-one] | < 0.2 µM |
| CC(C)(C)C(=O)N1Cc2ccc(-c3noc(C(F)(F)F)n3)cc2OC[C@@H]1c1ccccc1 [Compound 23, 2,2-dimethyl-1-[(3S)-3-phenyl-8-[5-(trifluoromethyl)-1,2,4-oxadiazol-3-yl]-3,5-dihydro-2H-1,4-benzoxazepin-4-yl]propan-1-one] | 0.2 to 0.5 µM |
| C[C@H]1COc2cc(-c3noc(C(F)(F)F)n3)cc(F)c2CN1C(=O)C(F)(F)F [Compound 24, (S)-2,2,2-trifluoro-1-(6-fluoro-3-methyl-8-(5-(trifluoromethyl)-1,2,4-oxadiazol-3-yl)-2,3-dihydrobenzo[f][1,4]oxazepin-4(5H)-yl)ethan-1-one] | < 0.2 µM |
| CC(=O)N1Cc2c(F)cc(-c3noc(C(F)(F)F)n3)cc2OC[C@@H]1C [Compound 25, 1-[(3S)-6-fluoro-3-methyl-8-[5-(trifluoromethyl)-1,2,4-oxadiazol-3-yl]-3,5-dihydro-2H-1,4-benzoxazepin-4-yl]ethanone] | 0.2 to 0.5 µM |
| COC[C@H]1COc2cc(-c3noc(C(F)(F)F)n3)ccc2CN1C(=O)C1(C)CCOCC1 [Compound 26, (3S)-3-(methoxymethyl)-4-[(4-methyloxan-4-yl)carbonyl]-8-[5-(trifluoromethyl)-1,2,4-oxadiazol-3-yl]-3,5-dihydro-2H-1,4-benzoxazepine] | < 0.2 µM |
| COC[C@H]1COc2cc(-c3noc(C(F)(F)F)n3)ccc2CN1C(=O)C(C)(C)C [Compound 27, 1-[(3S)-3-(methoxymethyl)-8-[5-(trifluoromethyl)-1,2,4-oxadiazol-3-yl]-3,5-dihydro-2H-1,4-benzoxazepin-4-yl]-2,2-dimethylpropan-1-one] | < 0.2 µM |
| CC1(C(=O)N2CCOc3cc(-c4noc(C(F)(F)F)n4)cc(F)c3C2)CCOCC1 [Compound 28, 6-fluoro-4-[(4-methyloxan-4-yl)carbonyl]-8-[5-(trifluoromethyl)-1,2,4-oxadiazol-3-yl]-3,5-dihydro-2H-1,4-benzoxazepine] | < 0.2 µM |
| CC(C)(C)C(=O)N1CCOc2cc(-c3noc(C(F)(F)F)n3)cc(F)c2C1 [Compound 29, 1-{6-fluoro-8-[5-(trifluoromethyl)-1,2,4-oxadiazol-3-yl]-3,5-dihydro-2H-1,4-benzoxazepin-4-yl}-2,2-dimethylpropan-1-one] | < 0.2 µM |
| COCC1(C(=O)N2Cc3c(F)cc(-c4noc(C(F)(F)F)n4)cc3OC[C@@H]2C)COC1 [Compound 30, (3S)-6-fluoro-4-{[3-(methoxymethyl)oxetan-3-yl]carbonyl}-3-methyl-8-[5-(trifluoromethyl)-1,2,4-oxadiazol-3-yl]-3,5-dihydro-2H-1,4-benzoxazepine] | < 0.2 µM |
| COCC1(C(=O)N2Cc3c(F)cc(-c4noc(C(F)(F)F)n4)cc3OC[C@@H]2C)CC1 [Compound 31, (3S)-6-fluoro-4-{[1-(methoxymethyl)cyclopropyl]carbonyl}-3-methyl-8-[5-(trifluoromethyl)-1,2,4-oxadiazol-3-yl]-3,5-dihydro-2H-1,4-benzoxazepine] | 0.2 to 0.5 µM |
| CC1(C(=O)N2Cc3ccc(-c4noc(C(F)(F)F)n4)cc3OC[C@@H]2C2CC2)CCOCC1 [Compound 32, (3S)-3-cyclopropyl-4-[(4-methyloxan-4-yl)carbonyl]-8-[5-(trifluoromethyl)-1,2,4-oxadiazol-3-yl]-3,5-dihydro-2H-1,4-benzoxazepine] | < 0.2 µM |
| C[C@H]1COc2cc(-c3noc(C(F)(F)F)n3)ccc2CN1S(C)(=O)=O [Compound 33, (S)-3-methyl-4-(methylsulfonyl)-8-(5-(trifluoromethyl)-1,2,4-oxadiazol-3-yl)-2,3,4,5-tetrahydrobenzo[f][1,4]oxazepine] | 0.2 to 0.5 µM |
| C[C@H]1COc2cc(-c3noc(C(F)(F)F)n3)ccc2CN1S(=O)(=O)C(C)(C)C [Compound 34, (3S)-3-methyl-4-(2-methylpropane-2-sulfonyl)-8-[5-(trifluoromethyl)-1,2,4-oxadiazol-3-yl]-3,5-dihydro-2H-1,4-benzoxazepine] | 0.2 to 0.5 µM |
| C[C@H]1COc2cc(-c3noc(C(F)(F)F)n3)ccc2CN1C [Compound 35, (S)-3,4-dimethyl-8-(5-(trifluoromethyl)-1,2,4-oxadiazol-3-yl)-2,3,4,5-tetrahydrobenzo[f][1,4]oxazepine] | 0.2 to 0.5 µM |
| C[C@H]1COc2cc(-c3noc(C(F)(F)F)n3)ccc2CN1CC(F)(F)F [Compound 36, (S)-3-methyl-4-(2,2,2-trifluoroethyl)-8-(5-(trifluoromethyl)-1,2,4-oxadiazol-3-yl)-2,3,4,5-tetrahydrobenzo[f][1,4]oxazepine] | 0.5 to 5 µM |
| CC1(C(=O)N2CCOc3cc(-c4noc(C(F)(F)F)n4)cc(F)c3C2)COC1 [Compound 37, 6-fluoro-4-[(3-methyloxetan-3-yl)carbonyl]-8-[5-(trifluoromethyl)-1,2,4-oxadiazol-3-yl]-3,5-dihydro-2H-1,4-benzoxazepine] | < 0.2 µM |
| CC(C)C(=O)N1Cc2c(F)cc(-c3noc(C(F)(F)F)n3)cc2OC[C@@H]1C [Compound 38, 1-[(3S)-6-fluoro-3-methyl-8-[5-(trifluoromethyl)-1,2,4-oxadiazol-3-yl]-3,5-dihydro-2H-1,4-benzoxazepin-4-yl]-2-methylpropan-1-one] | < 0.2 µM |
| C[C@H]1COc2cc(-c3noc(C(F)(F)F)n3)cc(F)c2CN1C(=O)C1CCOCC1 [Compound 39, (3S)-6-fluoro-3-methyl-4-[(oxan-4-yl)carbonyl]-8-[5-(trifluoromethyl)-1,2,4-oxadiazol-3-yl]-3,5-dihydro-2H-1,4-benzoxazepine] | < 0.2 µM |
| C[C@H]1COc2cc(-c3noc(C(F)(F)F)n3)cc(F)c2CN1C(=O)CO [Compound 40, 1-[(3S)-6-fluoro-3-methyl-8-[5-(trifluoromethyl)-1,2,4-oxadiazol-3-yl]-3,5-dihydro-2H-1,4-benzoxazepin-4-yl]-2-hydroxyethanone] | 0.2 to 0.5 µM |
| COCC(=O)N1Cc2c(F)cc(-c3noc(C(F)(F)F)n3)cc2OC[C@@H]1C [Compound 41, 1-[(3S)-6-fluoro-3-methyl-8-[5-(trifluoromethyl)-1,2,4-oxadiazol-3-yl]-3,5-dihydro-2H-1,4-benzoxazepin-4-yl]-2-methoxyethanone] | < 0.2 µM |
| C[C@H]1COc2cc(-c3noc(C(F)(F)F)n3)cc(F)c2CN1C(=O)CCN(C)C [Compound 42, (S)-3-(dimethylamino)-1-(6-fluoro-3-methyl-8-(5-(trifluoromethyl)-1,2,4-oxadiazol-3-yl)-2,3-dihydrobenzo[f][1,4]oxazepin-4(5H)-yl)propan-1-one] | 0.2 to 0.5 µM |
| C[C@H]1COc2cc(-c3noc(C(F)(F)F)n3)cc(F)c2CN1C(=O)CN(C)C [Compound 43, (S)-2-(dimethylamino)-1-(6-fluoro-3-methyl-8-(5-(trifluoromethyl)-1,2,4-oxadiazol-3-yl)-2,3-dihydrobenzo[f][1,4]oxazepin-4(5H)-yl)ethan-1-one] | 0.2 to 0.5 µM |
| C[C@H]1COc2cc(-c3noc(C(F)(F)F)n3)cc(F)c2CN1C(=O)c1ccccc1 [Compound 44, (3S)-4-benzoyl-6-fluoro-3-methyl-8-[5-(trifluoromethyl)-1,2,4-oxadiazol-3-yl]-3,5-dihydro-2H-1,4-benzoxazepine] | 0.2 to 0.5 µM |
| C[C@H]1COc2cc(-c3noc(C(F)(F)F)n3)cc(F)c2CN1C(=O)Cc1ccncc1 [Compound 46, 1-[(3S)-6-fluoro-3-methyl-8-[5-(trifluoromethyl)-1,2,4-oxadiazol-3-yl]-3,5-dihydro-2H-1,4-benzoxazepin-4-yl]-2-(pyridin-4-yl) ethenone] | < 0.2 µM |
